Measured values as given in patent US4141989A, “Fungicidal 3-(N-chloroacetyl-N-arylamino)-gamma-butyrolactone compositions” (Chevron Research Company, priority 1977, dated 1979).

What was measured:
Oral LD50 (rats) = details: rat, in vivo
[1] = test system: Peronospora parasitica ssp. brassicae; assay: Curative control of cabbage downy mildew (Example 14, Table IX); type: in vivo; details: for % Control: disease reduction relative to check flat
Phytophthora parasitica = assay: Tobacco crown and root rot control by soil drench, P. parasitica (Example 19, Table XIV); type: in vivo
Phytophthora cryptogea [2] = assay: Snapdragon crown and root rot control, soil drench (Example 16, Table XI); type: in vivo; details: soil drench, 100 ppm
[3] = test system: Peronospora parasitica ssp. brassicae; assay: Preventive control of cabbage downy mildew (Example 14, Table IX); type: in vivo; details: for % Control: disease reduction relative to check flat
Plasmopara viticola [4] = assay: Preventive grape downy mildew control, detached Emperor leaves (Example 5, Table I); type: in vivo; details: 6.4 ppm, sprayed before inoculation
P. cryptogea = assay: Tobacco crown and root rot control by soil drench, P. cryptogea (Example 19, Table XIV); type: in vivo
Plasmopara viticola [5] = assay: Eradicant downy mildew control on grape cuttings, wettable powder (Example 10, Table V); type: in vivo
Procedure: Three-month-old single-bud Cabernet Sauvignon cuttings (cultivated in gravel) containing 6 to 10 leaves were used as hosts. The undersides of the leaves were sprayed with a sporangial suspension of Plasmopara viticola containing 510,000 conidia per milliliter of water. The inoculated cuttings were placed into a misting chamber. […] Ten to 11 days after the inoculation, the amount of disease control was determined. The percent disease control provided by the test compound was based on the percent disease reduction relative to untreated check cuttings.

[6] = test system: Pseudoperonospora cubensis; assay: Foliar spray control of cucumber downy mildew (Example 15, Table X); type: in vivo
Bremia lactucae = assay: Control of lettuce downy mildew (Example 13, Table VIII); type: in vivo
Plasmopara viticola [7] = assay: Preventive grape downy mildew control, detached Cabernet Sauvignon leaves (Example 7, Table II); type: in vivo
Phytophthora cryptogea [8] = assay: Safflower crown and root rot control by soil drench, P. cryptogea (Example 18, Table XIII); type: in vivo
Plasmopara viticola [9] = assay: Eradicant grape downy mildew control, detached Emperor leaves (Example 6, Table I); type: in vivo; details: 48 h, sprayed 2 days after inoculation, read-out: Eradicative Grape Downy Mildew Control, %
Phytophthora cryptogea [10] = assay: Safflower crown and root rot control by foliar spray (Example 17, Table XII); type: in vivo
Phytophthora capsici = assay: Control of Phytophthora rot in sweet peppers (Example 20, Table XV); type: in vivo; details: 50% wettable powder
Procedure: The pots were then inoculated with the organism by spreading a bed of oats grain (contaminated with the Phytophthora capsici organism) on the soil surface and covering the bed with a 1-cm depth of sterilized soil. The sweet pepper seedlings were then sprayed to runoff with an aqueous suspension of the test compound at various test concentrations (12 pots per concentration level). The amount of disease control was determined by counting the number of dead plants. The percent disease control provided by the test compound was based on the percent disease reduction relative to untreated check seedlings.

Plasmopora viticola = assay: Control of foliar grape downy mildew infection by root absorption (Example 12, Table VII); type: in vivo; details: 50% wettable powder, 50 ppm
Text: Three-month-old single-bud Cabernet Sauvignon cuttings (cultivated in gravel), containing 9 to 12 leaves, were used as hosts. […] The cuttings were then replanted in gravel and put into a misting chamber. At four different times after root treatment, the leaf undersides were sprayed with a sporangial suspension of Plasmopora viticola. The inoculated cuttings were placed into the misting chamber to stimulate disease development. Ten to 12 days after inoculation, the amount of disease control was determined. The percent disease control provided by the test compound was based on the percent disease reduction relative to untreated check cuttings.

Plasmopara viticola [11] = assay: Residual preventive grape downy mildew control, wettable powder (Example 11, Table VI); type: in vivo; details: 160 ppm, inoculated 3 days after treatment
Procedure: Three-month-old single-bud Cabernet Sauvignon cuttings (cultivated in gravel), containing 5 to 8 leaves, were used as hosts. […] Three days after fungicide treatment, the undersides of the leaves were sprayed with a sporangial suspension of Plasmopara viticola. The inoculated cuttings were put into a misting chamber. Eight to 10 days after the inoculation, the amount of disease control was determined. The percent disease control provided by the test compound was based on the percent disease reduction relative to untreated check cuttings.

[12] = test system: yeasts responsible for the alcoholic fermentation of grapes; assay: Fermentation test, grape juice (Example 8, Table III); type: cell-based
Phytophthora cryptogea [13] = assay: Snapdragon crown and root rot control, foliar spray (Example 16, Table XI); type: in vivo; details: foliar spray, 100 ppm
P. parasitica = assay: Safflower crown and root rot control by soil drench, P. parasitica (Example 18, Table XIII); type: in vivo
Dermal LD50 (rats) = details: rat, in vivo, topical or ocular
[14] = 61.5 ppm, treated 3 days after inoculation
[15] = 62.5 ppm, treated 1 day after inoculation
[16] = 62.5 ppm, treated 2 days after inoculation
[17] = inoculated 1 day after root treatment
[18] = inoculated 5 days after root treatment

## Cc1cccc(C)c1N(C(=O)CCl)C1CCOC1=O (stereo not drawn) [Compound A, 3-(N-chloroacetyl-N-2,6-dimethylphenylamino)-gamma-butyrolactone]
Oral LD50 (rats)
  LD50: > 1000 mg/kg
[1]; 20 g a.i./hl
  % Diseased Seedlings: 1.8%
  % Control: 98.2%
[1]; 40 g a.i./hl
  % Diseased Seedlings: 1.0%
  % Control: 99.0%
[1]; 80 g a.i./hl
  % Diseased Seedlings: 0.6%
  % Control: 99.4%
Phytophthora parasitica; 16 ppm
  % Control, P. Parasitica: 96%
Phytophthora parasitica; 40 ppm
  % Control, P. Parasitica: 99.8%
Phytophthora parasitica; 100 ppm
  % Control, P. Parasitica: 100%
Phytophthora cryptogea [2]
  % Control: 100%
[3]; 20 g a.i./hl
  % Diseased Seedlings: 1.8%
  % Control: 98.2%
[3]; 40 g a.i./hl
  % Diseased Seedlings: 2.2%
  % Control: 97.7%
[3]; 80 g a.i./hl
  % Diseased Seedlings: 1.5%
  % Control: 98.5%
Plasmopara viticola [4]
  pest or weed control at 6.4 ppm: 97%
P. cryptogea; 16 ppm
  % Control, P. Cryptogea: 96%
P. cryptogea; 40 ppm
  % Control, P. Cryptogea: 99.8%
P. cryptogea; 100 ppm
  % Control, P. Cryptogea: 100%
Plasmopara viticola [5]; [14]
  % Disease Control: 84.7%
  % Leaf Surface Infected: 4.15%
Plasmopara viticola [5]; 62.5 ppm
  % Disease Control: 91.6%
Plasmopara viticola [5]; [15]
  % Disease Control: 97.6%
  % Leaf Surface Infected: 0.51%
Plasmopara viticola [5]; [16]
  % Disease Control: 96.2%
  % Leaf Surface Infected: 0.55%
Plasmopara viticola [5]; 62.5 ppm, treated 5 days after inoculation
  % Leaf Surface Infected: 2.5%
[6]; 16 ppm
  % Control: 63%
[6]; 40 ppm
  % Control: 88%
[6]; 100 ppm
  % Control: 100%
Bremia lactucae; 25 g active/hl
  % Control: 75.8%
  % Dead Seedlings: 5.9%
Bremia lactucae; 50 g active/hl
  % Control: 90.6%
  % Dead Seedlings: 1.1%
Bremia lactucae; 100 g active/hl
  % Control: 95.5%
  % Dead Seedlings: 2.3%
Plasmopara viticola [7]; 6.4 ppm
  Percent Control: 100%
Plasmopara viticola [7]; 16 ppm
  Percent Control: 100%
Plasmopara viticola [7]; 40 ppm
  Percent Control: 100%
Phytophthora cryptogea [8]; 16 ppm
  % Control, P. Cryptogea: 92%
Phytophthora cryptogea [8]; 40 ppm
  % Control, P. Cryptogea: 97%
Phytophthora cryptogea [8]; 100 ppm
  % Control, P. Cryptogea: 100%
Plasmopara viticola [9]; 6.4 ppm
  pest or weed control at 6.4 ppm: 99%
Plasmopara viticola [9]; 100 ppm
  pest or weed control at 100 ppm: 99%
Phytophthora cryptogea [10]; 16 ppm
  % Control: 92%
Phytophthora cryptogea [10]; 40 ppm
  % Control: 97%
Phytophthora cryptogea [10]; 100 ppm
  % Control: 100%
Phytophthora capsici; 100 g/hl
  % Control: 25%
  % Leaf Surface Damaged: 0%
  % of Alive Seedlings: 50%
Phytophthora capsici; 200 g/hl
  % Control: 100%
  % Leaf Surface Damaged: 1.3%
  % of Alive Seedlings: 100%
Phytophthora capsici; 400 g/hl
  % Control: 100%
  % Leaf Surface Damaged: 1.63%
  % of Alive Seedlings: 100%
Plasmopora viticola; [17]
  % Disease Control: 33.5%
  % Leaf Surface Infected: 6.26%
Plasmopora viticola; [18]
  % Disease Control: 98%
  % Leaf Surface Infected: 0.32%
Plasmopara viticola [11]
  % Disease Control: 99.8%
  % Leaf Surface Infected: 0.03%
[12]; 1 ppm, after 1 day
  Cumulative loss of weight due to CO2 escape: 0.9 grams
[12]; 1 ppm, after 2 days
  Cumulative loss of weight due to CO2 escape: 5.0 grams
[12]; 1 ppm, after 3 days
  Cumulative loss of weight due to CO2 escape: 10.5 grams
[12]; 1 ppm, after 4 days
  Cumulative loss of weight due to CO2 escape: 11.3 grams
[12]; 1 ppm, after 7 days
  Cumulative loss of weight due to CO2 escape: 14.2 grams
[12]; 1 ppm, after 8 days
  Cumulative loss of weight due to CO2 escape: 14.5 grams
[12]; 2 ppm, after 1 day
  Cumulative loss of weight due to CO2 escape: 0.8 grams
[12]; 2 ppm, after 2 days
  Cumulative loss of weight due to CO2 escape: 5.2 grams
[12]; 2 ppm, after 3 days
  Cumulative loss of weight due to CO2 escape: 10.4 grams
[12]; 2 ppm, after 4 days
  Cumulative loss of weight due to CO2 escape: 11.1 grams
[12]; 2 ppm, after 7 days
  Cumulative loss of weight due to CO2 escape: 13.4 grams
[12]; 2 ppm, after 8 days
  Cumulative loss of weight due to CO2 escape: 13.7 grams
[12]; 4 ppm, after 1 day
  Cumulative loss of weight due to CO2 escape: 1.0 grams
[12]; 4 ppm, after 2 days
  Cumulative loss of weight due to CO2 escape: 5.2 grams
[12]; 4 ppm, after 3 days
  Cumulative loss of weight due to CO2 escape: 10.4 grams
[12]; 4 ppm, after 4 days
  Cumulative loss of weight due to CO2 escape: 11.1 grams
[12]; 4 ppm, after 7 days
  Cumulative loss of weight due to CO2 escape: 13.1 grams
[12]; 4 ppm, after 8 days
  Cumulative loss of weight due to CO2 escape: 13.3 grams
[12]; 8 ppm, after 1 day
  Cumulative loss of weight due to CO2 escape: 1.0 grams
[12]; 8 ppm, after 2 days
  Cumulative loss of weight due to CO2 escape: 5.4 grams
[12]; 8 ppm, after 3 days
  Cumulative loss of weight due to CO2 escape: 11.0 grams
[12]; 8 ppm, after 4 days
  Cumulative loss of weight due to CO2 escape: 11.8 grams
[12]; 8 ppm, after 7 days
  Cumulative loss of weight due to CO2 escape: 14.5 grams
[12]; 8 ppm, after 8 days
  Cumulative loss of weight due to CO2 escape: 15.2 grams
Phytophthora cryptogea [13]
  % Control: 97%
P. parasitica; 16 ppm
  % Control, P. Parasitica: 94%
P. parasitica; 40 ppm
  % Control, P. Parasitica: 99%
P. parasitica; 100 ppm
  % Control, P. Parasitica: 100%
Dermal LD50 (rats)
  LD50: > 2000 mg/kg
